Reference: patent US20230085307A1, “PYRIDAZINONE COMPOUND AND HERBICIDE” (NISSAN CHEMICAL CORPORATION, priority 2019, published 2023)

Key:
[1] = system: late watergrass; assay: Test Example 1: herbicidal activity, application before weed generation under submerged conditions (Table 16, symbol A); assay type: in vivo, late watergrass (Echinochloa oryzicola)
In short: (§1)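 Alluvial soil was flooded to 4 cm depth, weed seeds were sown mixed and 2.5-leaf rice seedlings were transplanted. On sowing day, the compound's emulsion, diluted in water to a set dose, was applied to the water surface. Plants grew at 25–30 °C and were scored 0–5 after three weeks.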

[2] = system: Japanese bulrush; assay: Test Example 1: herbicidal activity, application before weed generation under submerged conditions (Table 16, symbol B); assay type: in vivo, Japanese bulrush (Schoenoplectus juncoides)
In short: as §1

[3] = system: oval-leafed pondweed; assay: Test Example 1: herbicidal activity, application before weed generation under submerged conditions (Table 16, symbol C); assay type: in vivo, oval-leafed pondweed (Monochoria vaginalis)
In short: as §1

[4] = system: barnyard grass; assay: Test Example 3: herbicidal effect by foliage application, Wagner pot (Table 18, symbol H); assay type: in vivo, barnyard grass (Echinochloa crus-galli)
In short: (§2)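 Plants were sown in alluvial soil held under 0.1–0.5 cm standing water and grown 14 days in a greenhouse at 25–30 °C. An emulsifiable formulation, water-diluted to the set dose, was then sprayed onto the foliage, and effects were scored three weeks later using previously defined criteria.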

[5] = system: Chinese sprangletop; assay: Test Example 3: herbicidal effect by foliage application, Wagner pot (Table 18, symbol D); assay type: in vivo, chinese sprangletop (Leptochloa chinensis)
In short: as §2

[6] = system: rice flat sedge; assay: Test Example 3: herbicidal effect by foliage application, Wagner pot (Table 18, symbol E); assay type: in vivo, rice flat sedge (Cyperus iria)
In short: as §2

[7] = system: southern crabgrass; assay: Test Example 4: herbicidal effect by soil treatment (Table 19, symbol F); assay type: in vivo, southern crabgrass (Digitaria ciliaris)
In short: (§3)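 Three weeks of greenhouse growth at 25° C. to 30° C. followed a uniform surface spray of water-diluted emulsion at a predetermined herbicide amount. Seeds had been sown beforehand under about 1.5 cm of sterilized diluvial soil. Grading followed criteria set out in an earlier test.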

[8] = system: green foxtail; assay: Test Example 4: herbicidal effect by soil treatment (Table 19, symbol G); assay type: in vivo, green foxtail (Setaria viridis)
In short: as §3

[9] = system: barnyard grass; assay: Test Example 4: herbicidal effect by soil treatment (Table 19, symbol H); assay type: in vivo, barnyard grass (Echinochloa crus-galli)
In short: as §3

[10] = system: wild oat; assay: Test Example 4: herbicidal effect by soil treatment (Table 19, symbol I); assay type: in vivo, wild oat (Avena fatua)
In short: as §3

[11] = system: Italian ryegrass; assay: Test Example 4: herbicidal effect by soil treatment (Table 19, symbol K); assay type: in vivo, Italian ryegrass (Lolium multiflorum)
In short: as §3

[12] = system: windgrass; assay: Test Example 4: herbicidal effect by soil treatment (Table 19, symbol L); assay type: in vivo, windgrass (Apera spica-venti)
In short: as §3

[13] = system: velvetleaf; assay: Test Example 4: herbicidal effect by soil treatment (Table 19, symbol M); assay type: in vivo, velvetleaf (Abutilon theophrasti)
In short: as §3

[14] = system: redroot pigweed; assay: Test Example 4: herbicidal effect by soil treatment (Table 19, symbol N); assay type: in vivo, redroot pigweed (Amaranthus retroflexus)
In short: as §3

[15] = system: lambsquarters; assay: Test Example 4: herbicidal effect by soil treatment (Table 19, symbol O); assay type: in vivo, lambsquarters (Chenopodium album)
In short: as §3

[16] = system: chickweed; assay: Test Example 4: herbicidal effect by soil treatment (Table 19, symbol P); assay type: in vivo, common chickweed (Stellaria media)
In short: as §3

[17] = system: persian speedwell; assay: Test Example 4: herbicidal effect by soil treatment (Table 19, symbol R); assay type: in vivo, Persian speedwell (Veronica persica)
In short: as §3

[18] = system: southern crabgrass; assay: Test Example 5: herbicidal effect by foliage application, plastic box (Table 20, symbol F); assay type: in vivo, southern crabgrass (Digitaria ciliaris); conditions: foliage application, three weeks after application
In short: (§4)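 Plants sown in sterilized diluvial soil and grown 14 days in a greenhouse at 25° C to 30° C, then sprayed on the foliage with the compound's emulsion diluted in water to a predetermined herbicide amount. Injury to weeds and crops scored three weeks after application on a visual rating scale.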

[19] = system: green foxtail; assay: Test Example 5: herbicidal effect by foliage application, plastic box (Table 20, symbol G); assay type: in vivo, green foxtail (Setaria viridis); conditions: foliage application, three weeks after application
In short: as §4

[20] = system: barnyard grass; assay: Test Example 5: herbicidal effect by foliage application, plastic box (Table 20, symbol H); assay type: in vivo, barnyard grass (Echinochloa crus-galli); conditions: foliage application, three weeks after application
In short: as §4

[21] = system: wild oat; assay: Test Example 5: herbicidal effect by foliage application, plastic box (Table 20, symbol I); assay type: in vivo, wild oat (Avena fatua); conditions: foliage application, three weeks after application
In short: as §4

[22] = system: blackgrass; assay: Test Example 5: herbicidal effect by foliage application, plastic box (Table 20, symbol J); assay type: in vivo, blackgrass (Alopecurus myosuroides); conditions: foliage application, three weeks after application
In short: as §4

[23] = system: Italian ryegrass; assay: Test Example 5: herbicidal effect by foliage application, plastic box (Table 20, symbol K); assay type: in vivo, Italian ryegrass (Lolium multiflorum); conditions: foliage application, three weeks after application
In short: as §4

[24] = system: windgrass; assay: Test Example 5: herbicidal effect by foliage application, plastic box (Table 20, symbol L); assay type: in vivo, windgrass (Apera spica-venti); conditions: foliage application, three weeks after application
In short: as §4

[25] = system: velvetleaf; assay: Test Example 5: herbicidal effect by foliage application, plastic box (Table 20, symbol M); assay type: in vivo, velvetleaf (Abutilon theophrasti); conditions: foliage application, three weeks after application
In short: as §4

[26] = system: redroot pigweed; assay: Test Example 5: herbicidal effect by foliage application, plastic box (Table 20, symbol N); assay type: in vivo, redroot pigweed (Amaranthus retroflexus); conditions: foliage application, three weeks after application
In short: as §4

[27] = system: lambsquarters; assay: Test Example 5: herbicidal effect by foliage application, plastic box (Table 20, symbol O); assay type: in vivo, lambsquarters (Chenopodium album); conditions: foliage application, three weeks after application
In short: as §4

[28] = system: chickweed; assay: Test Example 5: herbicidal effect by foliage application, plastic box (Table 20, symbol P); assay type: in vivo, common chickweed (Stellaria media); conditions: foliage application, three weeks after application
In short: as §4

[29] = system: persian speedwell; assay: Test Example 5: herbicidal effect by foliage application, plastic box (Table 20, symbol R); assay type: in vivo, Persian speedwell (Veronica persica); conditions: foliage application, three weeks after application
In short: as §4

[30] = amount of applied herbicide 320 g/ha

Cc1nn(C)c(=O)c(-c2c(-c3ccc(N(C)C)cc3)sc3ccc(F)cc23)c1O [2-425]
Herbicidal effect, A: late watergrass [1, 30]: 3 (Herbicidal rate of 40% or more and less than 70%)
Herbicidal effect, B: Japanese bulrush [2, 30]: 3 (Herbicidal rate of 40% or more and less than 70%)
Herbicidal effect, C: oval-leafed pondweed [3, 30]: 0 (Herbicidal rate of 5% or less (almost no effect))
herbicidal effect on H: barnyard grass [4, 30]: 4 (Herbicidal rate of 70% or more and less than 90%)
herbicidal effect on D: Chinese sprangletop [5, 30]: 2 (Herbicidal rate of 20% or more and less than 40%)
herbicidal effect on E: rice flat sedge [6, 30]: 5 (Herbicidal rate of 90% or more (almost completely withered))
herbicidal effect, F: southern crabgrass [7, 30]: 0 (Herbicidal rate of 5% or less (almost no effect))
herbicidal effect, G: green foxtail [8, 30]: 0 (Herbicidal rate of 5% or less (almost no effect))
herbicidal effect, H: barnyard grass [9, 30]: 0 (Herbicidal rate of 5% or less (almost no effect))
herbicidal effect, I: wild oat [10, 30]: 0 (Herbicidal rate of 5% or less (almost no effect))
herbicidal effect, K: Italian ryegrass [11, 30]: 2 (Herbicidal rate of 20% or more and less than 40%)
herbicidal effect, L: windgrass [12, 30]: 0 (Herbicidal rate of 5% or less (almost no effect))
herbicidal effect, M: velvetleaf [13, 30]: 0 (Herbicidal rate of 5% or less (almost no effect))
herbicidal effect, N: redroot pigweed [14, 30]: 5 (Herbicidal rate of 90% or more (almost completely withered))
herbicidal effect, O: lambsquarters [15, 30]: 4 (Herbicidal rate of 70% or more and less than 90%)
herbicidal effect, P: chickweed [16, 30]: 3 (Herbicidal rate of 40% or more and less than 70%)
herbicidal effect, R: persian speedwell [17, 30]: 5 (Herbicidal rate of 90% or more (almost completely withered))
F: southern crabgrass, herbicidal effect grade ([18]; 320 g/ha): 5 (Herbicidal rate of 90% or more (almost completely withered))
G: green foxtail, herbicidal effect grade ([19]; 320 g/ha): 5 (Herbicidal rate of 90% or more (almost completely withered))
H: barnyard grass, herbicidal effect grade ([20]; 320 g/ha): 4 (Herbicidal rate of 70% or more and less than 90%)
I: wild oat, herbicidal effect grade ([21]; 320 g/ha): 4 (Herbicidal rate of 70% or more and less than 90%)
J: blackgrass, herbicidal effect grade ([22]; 320 g/ha): 4 (Herbicidal rate of 70% or more and less than 90%)
K: Italian ryegrass, herbicidal effect grade ([23]; 320 g/ha): 4 (Herbicidal rate of 70% or more and less than 90%)
L: windgrass, herbicidal effect grade ([24]; 320 g/ha): 5 (Herbicidal rate of 90% or more (almost completely withered))
M: velvetleaf, herbicidal effect grade ([25]; 320 g/ha): 5 (Herbicidal rate of 90% or more (almost completely withered))
N: redroot pigweed, herbicidal effect grade ([26]; 320 g/ha): 5 (Herbicidal rate of 90% or more (almost completely withered))
O: lambsquarters, herbicidal effect grade ([27]; 320 g/ha): 5 (Herbicidal rate of 90% or more (almost completely withered))
P: chickweed, herbicidal effect grade ([28]; 320 g/ha): 5 (Herbicidal rate of 90% or more (almost completely withered))
R: persian speedwell, herbicidal effect grade ([29]; 320 g/ha): 5 (Herbicidal rate of 90% or more (almost completely withered))

CCCC(=O)Oc1c(C)nn(C)c(=O)c1-c1c(-c2ccccc2OCOC)sc2ccccc12 [1-115]
Herbicidal effect on A: late watergrass (grade 0-5) ([1]; 320 g/ha applied herbicide): 2 (Herbicidal rate of 20% or more and less than 40%)
Herbicidal effect on B: Japanese bulrush (grade 0-5) ([2]; 320 g/ha applied herbicide): 0 (Herbicidal rate of 5% or less (almost no effect))
Herbicidal effect on C: oval-leafed pondweed (grade 0-5) ([3]; 320 g/ha applied herbicide): 2 (Herbicidal rate of 20% or more and less than 40%)
herbicidal effect on H (barnyard grass), rating 0-5 ([4]; 320 g/ha): 4 (Herbicidal rate of 70% or more and less than 90%)
herbicidal effect on D (Chinese sprangletop), rating 0-5 ([5]; 320 g/ha): 2 (Herbicidal rate of 20% or more and less than 40%)
herbicidal effect on E (rice flat sedge), rating 0-5 ([6]; 320 g/ha): 2 (Herbicidal rate of 20% or more and less than 40%)
F: southern crabgrass, herbicidal effect rating ([7]; AAH 320 g/ha): 0 (Herbicidal rate of 5% or less (almost no effect))
G: green foxtail, herbicidal effect rating ([8]; AAH 320 g/ha): 0 (Herbicidal rate of 5% or less (almost no effect))
H: barnyard grass, herbicidal effect rating ([9]; AAH 320 g/ha): 2 (Herbicidal rate of 20% or more and less than 40%)
I: wild oat, herbicidal effect rating ([10]; AAH 320 g/ha): 0 (Herbicidal rate of 5% or less (almost no effect))
K: Italian ryegrass, herbicidal effect rating ([11]; AAH 320 g/ha): 0 (Herbicidal rate of 5% or less (almost no effect))
L: windgrass, herbicidal effect rating ([12]; AAH 320 g/ha): 0 (Herbicidal rate of 5% or less (almost no effect))
M: velvetleaf, herbicidal effect rating ([13]; AAH 320 g/ha): 0 (Herbicidal rate of 5% or less (almost no effect))
N: redroot pigweed, herbicidal effect rating ([14]; AAH 320 g/ha): 3 (Herbicidal rate of 40% or more and less than 70%)
O: lambsquarters, herbicidal effect rating ([15]; AAH 320 g/ha): 0 (Herbicidal rate of 5% or less (almost no effect))
P: chickweed, herbicidal effect rating ([16]; AAH 320 g/ha): 0 (Herbicidal rate of 5% or less (almost no effect))
R: persian speedwell, herbicidal effect rating ([17]; AAH 320 g/ha): 0 (Herbicidal rate of 5% or less (almost no effect))
F: southern crabgrass, herbicidal effect ([18]; AAH 320 g/ha): 4 (Herbicidal rate of 70% or more and less than 90%)
G: green foxtail, herbicidal effect ([19]; AAH 320 g/ha): 4 (Herbicidal rate of 70% or more and less than 90%)
H: barnyard grass, herbicidal effect ([20]; AAH 320 g/ha): 2 (Herbicidal rate of 20% or more and less than 40%)
I: wild oat, herbicidal effect ([21]; AAH 320 g/ha): 2 (Herbicidal rate of 20% or more and less than 40%)
J: blackgrass, herbicidal effect ([22]; AAH 320 g/ha): 4 (Herbicidal rate of 70% or more and less than 90%)
K: Italian ryegrass, herbicidal effect ([23]; AAH 320 g/ha): 0 (Herbicidal rate of 5% or less (almost no effect))
L: windgrass, herbicidal effect ([24]; AAH 320 g/ha): 4 (Herbicidal rate of 70% or more and less than 90%)
M: velvetleaf, herbicidal effect ([25]; AAH 320 g/ha): 3 (Herbicidal rate of 40% or more and less than 70%)
N: redroot pigweed, herbicidal effect ([26]; AAH 320 g/ha): 5 (Herbicidal rate of 90% or more (almost completely withered))
O: lambsquarters, herbicidal effect ([27]; AAH 320 g/ha): 2 (Herbicidal rate of 20% or more and less than 40%)
P: chickweed, herbicidal effect ([28]; AAH 320 g/ha): 5 (Herbicidal rate of 90% or more (almost completely withered))
R: persian speedwell, herbicidal effect ([29]; AAH 320 g/ha): 2 (Herbicidal rate of 20% or more and less than 40%)
